Legend:
Type in all cases: cell-based, human
[1] = tested on: LL5β at the cell edge of HeLa cells; test: Peripheral clustering of LL5β; conditions: talin1/2-depleted HeLa rescue (Fig 4G); mean, n = 12, SEM 4.85049
Method: (§1) HeLa Kyoto cell line was described previously ([Lansbergen et al., 2006]; [Mimori-Kiyosue et al., 2005]). HEK293T cells were purchased from ATCC; culture and transfection of DNA and siRNA into these cell lines was performed as previously described ([van der Vaart et al., 2013]). HaCaT cells were purchased at Cell Line Service (Eppelheim, Germany) and cultured according to manufacturer’s instructions. The cell lines were routinely checked for mycoplasma contamination using LT07-518 Mycoalert assay (Lonza, Switzerland).The identity of the cell lines was monitored by immunofluorescence-staining-based analysis with multiple markers. Blebbistatin was purchased from Enzo Life Sciences and used at 50 μM. Serum starvation in HeLa cells was done for 48 hr and focal adhesion assembly was stimulated by incubation with fetal calf serum-containing medium with or without blebbistatin for 2 hr. ROCK1 inhibitor Y-27632 was purchased at Sigma-Aldrich and used at 1 or 10 μM. Double stable HeLa cell line expressing GFP-KANK1 and TagRFP-paxillin was made by viral infection. We used a pLVIN-TagRFP-paxillin-based lentivirus and a pQC-GFP-KANK1-based retrovirus packaged in HEK293T cells using respectively Lenti-X HTX packaging and pCL-Ampho vectors. Antibiotic selection was applied to cells 48 hr after infection using 500 μg/ml G418 (Geneticin, Life Technologies) and 1 μg/ml puromycin (InvivoGen).
Antibodies against HA and GFP tags, and liprin β1 used for Western blot analysis were previously described ([van der Vaart et al., 2013]). Rabbit antibodies against KANK1 (HPA005539) and KANK2 (HPA015643) were purchased at Sigma-Aldrich. Western blot analysis of KANK1 was performed using rabbit polyclonal KANK1 antibody (A301-882A) purchased at Bethyl Laboratories. Talin immunofluorescence staining was performed using mouse monoclonal 8d4 antibody (Sigma-Aldrich). Western blot analysis of talin 1 and 2 expression was performed using respectively the isotype specific mouse monoclonal 97H6 (Sigma-Aldrich) and 68E7 (Abcam) antibodies. Ku80 (7/Ku80) antibody was purchased from BD Biosciences. Immunofluorescence staining of KANK1, LL5β, liprin β1, KIF21A and CLASP2 in HeLa and HaCaT cells was performed using the antibodies and procedures previously described ([Lansbergen et al., 2006]; [van der Vaart et al., 2013]). F-actin was stained using Alexa Fluor 594-conjugated phalloidin (Life Technologies). Phospho-tyrosine mouse antibody (PT-66) was purchased from Sigma-Aldrich and rabbit FAK phospho-tyrosine 397 was purchased from Biosource.
(§2) Fixed samples and corresponding immunofluorescence images were acquired using widefield fluorescence illumination on a Nikon Eclipse 80i or Ni upright microscope equipped with a CoolSNAP HQ2 CCD camera (Photometrics) or a DS-Qi2 camera (Nikon) an Intensilight C-HGFI precentered fiber illuminator (Nikon), ET-DAPI, ET-EGFP and ET-mCherry filters (Chroma), Nikon NIS Br software, Plan Apo VC 100x NA 1.4 oil, Plan Apo Lambda 100X oil NA 1.45 and Plan Apo VC 60x NA 1.4 oil (Nikon) objectives. […]

[2] = tested on: KIF21A at the cell edge of HeLa cells; test: Peripheral clustering of KIF21A; conditions: talin1/2-depleted HeLa rescue (Fig 4G); mean, n = 12, SEM 3.66709
Method: as §1, with “ROCK1 inhibitor Y-27632 was purchased at Sigma-Aldrich and used at 1 or 10 μM. Double stable HeLa cell line expressing GFP-KANK1 and TagRFP-paxillin was made by viral infection. We used a pLVIN-TagRFP-paxillin-based lentivirus and a pQC-GFP-KANK1-based retrovirus packaged in HEK293T cells using respectively Lenti-X HTX packaging and pCL-Ampho vectors. Antibiotic selection was applied to cells 48 hr after infection using 500 μg/ml G418 (Geneticin, Life Technologies) and 1 μg/ml puromycin (InvivoGen).” left out
as §2

[3] = tested on: focal adhesions in HeLa cells; test: FA area; parameters: AV areaFA: unit not given here; conditions: HeLa, TLN1-KD, mTLN1 rescue; mean of per-cell averages, Count 12
Method: HeLa Kyoto cell line was described previously ([Lansbergen et al., 2006]; [Mimori-Kiyosue et al., 2005]). HEK293T cells were purchased from ATCC; culture and transfection of DNA and siRNA into these cell lines was performed as previously described ([van der Vaart et al., 2013]). HaCaT cells were purchased at Cell Line Service (Eppelheim, Germany) and cultured according to manufacturer’s instructions. The cell lines were routinely checked for mycoplasma contamination using LT07-518 Mycoalert assay (Lonza, Switzerland).The identity of the cell lines was monitored by immunofluorescence-staining-based analysis with multiple markers. Blebbistatin was purchased from Enzo Life Sciences and used at 50 μM. […]
For presentation, images were adjusted for brightness and processed by Gaussian blur and Unsharp mask filter using ImageJ 1.47v (NIH). Fluorescence profiles are values measured by line scan analysis in ImageJ, normalized by background average fluorescence, expressed as a factor of the baseline value obtained for individual channel and plotted as a function of maximum length factor of the selection line (distance ratio). Protein clustering at the cell edge is the ratio of the total fluorescence in the first 5 μm from the cell edge to the next 5 μm measured by line scan analysis in ImageJ after thresholding for cell outline marking and out-of-cell region value assigned to zero. […]

[4] = tested on: microtubule plus ends in HeLa cells; test: Ratio of microtubule growth rate in the cell center and at the cell edge; conditions: depletion and rescue, EB3-mRFP
Method: nEB3-mRFP dynamics was recorded by 0.5 s interval time lapse TIRF imaging. Microtubule growth was measured using kymographs obtained from EB3-mRFP time lapse image series, plotted and presented as previously described ([van der Vaart et al., 2013]). Ratio of microtubule growth in cell center to periphery was obtained as values for individual cells. Microtubule growth trajectory angle to the cell edge was manually measured in ImageJ using tracks obtained by maximum intensity projection of EB3-mRFP image series.

Substance: GFP-talin1-G1404L: GFP-tagged mouse talin1 with single point mutation G1404L
- Peripheral clustering of LL5β, percentage of control, AV, talin rescue [1]: 20.7686 percentage of control condition average value
- Peripheral clustering of KIF21A, percentage of control, AV, talin rescue [2]: 41.905 percentage of control condition average value
- AV areaFA [3]: 1.146
- microtubule growth, fold slower at cell margin/edge than in cell center [4]: 1.5 fold
